What was measured:
[1] = test system: Mouse splenocytes; experiment: XTT cell viability assay, PHA-stimulated splenocytes; assay type: cell-based; details: 72 hours; for XTT IC50 / IC50: mouse splenocytes, 25-400 nM; for IC50: Splenocyte
Procedure: Cell viability was assessed by the 2,3 bis [2-Methoxy-4-nitro-5-sulfophenyl]-2H-tetrazolium-5-carboxanilide (XTT) assay (Biological Industries, Kibbutz Beit Hemeek, Israel), which measures the reduction of a tetrazolium component (XTT) into soluble formazan product by the mitochondria of viable cells. The intensity of the dye obtained is proportional to the number of metabolic active cells. On the day of measurement, cells were washed and XTT was added according to the manufacturer's instructions. Plates were incubated at 37° C. for 2-5 hours. The absorbance was read at 450 nm.
Mouse splenocytes were removed and spleenocytes were plated (250,000 cell/well) in DMEM+10% FCS+P/S+Q and […] Phytohaemaglutinin (PHA), in the presence of elevated concentrations (25-400 nM) of RAM-0 (Compound 1), RAM-1 (Compound 4), RAM-2 (Compound 2) or RAM-3 (Compound 3) for 72 hours. Cells cultured without PHA served as control. Control mice at zero are mice splenocytes with PHA stimulation.
Following incubation, cell viability was determined by XTT assay, as described above.

[2] = test system: C57BL/6J mice; experiment: Toxicity (LD50, survival) in the EAE model, continuous administration; assay type: in vivo; details: EAE prevention model
Procedure: (§1) The animals were evaluated for signs of acute toxicity and survival during the entire administration period in the EAE model.
(§2) The therapeutic index (LD50/ED50), which is also referred to herein as Safety Margin (SM), was then determined based on the EAE model.

[3] = as above; assay type: in vivo; details: C57BL/6J, mouse, in vivo, oral; EAE prevention model, continuous administration
Procedure: as §1, §2

[4] = Solubility in mQ water; assay type: physicochemical; details: 50 mg in 0.5 mL mQ water, room temperature
Procedure: The solubility of Compounds 1 and 10 was determined by dissolving 50 mg of the tested compound in 0.5 mL of mQ water, at room temperature.

[5] = test system: MOG35-55 EAE in C57BL/6J mice; experiment: MOG35-55 EAE prevention (immunization) model; assay type: in vivo; details: Mus musculus
Procedure: Mice: Eight-weeks-old female C57BL/6J mice (15-20 g, Harlan laboratories, Rehovot, Israel) were used in all experiments. Animal maintenance and experimental protocols were performed in accordance with the Israeli Council for Animal Care guidelines and approved by Sheba IRB Animal Care Committee. Mice were kept in an SPF environment, maintained on a 12-h light/dark cycle at a constant environmental temperature with free access to food and water in their home cages.
Induction of MOG35-55 EAE (Prevention Model): EAE (Experimental Autoimmune Encephalomyelitis) was induced in 8 week old female C57BL/6J mice (15-20 g, Harlan laboratories, Rehovot, Israel) by immunization with an emulsion containing 300 μg of purified myelin oligodendrocyte glycoprotein (MOG) peptide ([…], corresponding to residues 35-55; obtained from (Difco, Detroit, Mich.) in saline and an equal volume of complete Freund's adjuvant containing 5 mg H37RA (Difco, Detroit, Mich.). 0.2 ml of the inoculum was injected subcutaneously. In addition, 300 ng of Bordetella pertusis toxin (Sigma) in 0.2 ml saline was injected intraperitoneally at the day of induction and two days later.
Oral gavages with the tested compound, at various concentrations ranging from 3 mg/kg-30 mg/kg in PBS or 50 mM NaH2PO4 (PH 4.5), or with vehicle only, were initiated at day of immunization. Mice were monitored daily for clinical signs of EAE, scored as: 1, flaccid tail; 2, forelimb weakness and poor righting ability; 3, hind limb paralysis; 4, quadriplegia; 5, moribund. Animal reaching a score of 4 were scarified using CO2.
Treatment was stopped once 30% of the vehicle-treated animals scored 1 on the EAE score. […]
The therapeutic index (LD50/ED50), which is also referred to herein as Safety Margin (SM), was then determined based on the EAE model. ED50 is the minimum effective dose observed for 50% of the tested animals.

[6] = test system: POL-I; details: human cancer cell lines; cited from earlier work
[7] = test system: Experimental Autoimmune Encephalomyelitis (EAE); details: cited from earlier work

With `Cc1cnc(CNC(=O)c2c(Cl)c3ccc(N4CCCN(C)CC4)nc3[n+]3c2sc2ccccc23)cn1` [Compound 2, 5-chloro-2-(4-methyl-1,4-diazepan-1-yl)-6-(((5-methylpyrazin-2-yl)methyl)carbamoyl)benzo[4,5]thiazolo[3,2-a][1,8]naphthyridin-12-ium] the “suppression of splenocyte proliferation compared to Compound 1 (XTT)” value [1] was “no substantial effect” and the “XTT IC50” value [1] was “No Effect”.

`CO/N=c1/c(C(=O)NCc2cnc(C)cn2)c2sc3ccccc3n2c2nc(N3CCCN(C)CC3)ccc12` [Compound 8] showed an IC50 [1] of 50 nM.

For `CCC/N=c1/c(C(=O)NCc2cnc(C)cn2)c2sc3ccccc3n2c2nc(N3CCCN(C)CC3)ccc12` [Compound 6], the IC50 [1] was 50 nM.

In the case of `Cc1cnc(CNc2nc(=O)nc3c4ccc(N5CCCN(C)CC5)nc4n4c(sc5ccccc54)c2-3)cn1` [Compound 9], the “XTT IC50” value [1] is reported as “No Effect”.

For `Cc1cnc(CNC(=O)c2c(=N)c3ccc(N4CCCN(C)CC4)nc3n3c2sc2ccccc23)cn1` [Compound 4, 5-imino-2-(4-methyl-1,4-diazepan-1-yl)-N-((5-methylpyrazin-2-yl)methyl)-5H-benzo[4,5]thiazolo[3,2-a][1,8]naphthyridine-6-carboxamide], the “suppression of splenocyte proliferation compared to Compound 1 (XTT)” value [1] was “dose response curve similar to RAM-0 (Compound 1)” and the IC50 [1] was 50 nM.

With `Cc1cnc(CNC(=O)c2c(=S)c3ccc(N4CCCN(C)CC4)nc3n3c2sc2ccccc23)cn1` [Compound 3, 2-(4-methyl-1,4-diazepan-1-yl)-N-((5-methylpyrazin-2-yl)methyl)-5-thioxo-5H-benzo[4,5]thiazolo[3,2-a][1,8]naphthyridine-6-carboxamide] the “effectiveness in suppressing proliferation compared to Compound 1” value [1] was 6 folds and the IC50 [1] was 20 nM.

With `Cc1cnc(CNC(=O)c2c(=O)c3ccc(N4CCCN(C)CC4)nc3n3c2sc2ccccc23)cn1` [Compound 1, 2-(4-methyl-1,4-diazepan-1-yl)-N-((5-methylpyrazin-2-yl)methyl)-5-oxo-5H-benzo[4,5]thiazolo[3,2-a][1,8]naphthyridine-6-carboxamide, reference compound] the “SM (therapeutic index LD50/ED50)” value [2] was 2, the LD50 [3] was 25 mg/kg and the solubility [4] was “dissolved only in a pH 4.5 buffered solution after vigorous stirring for 30 minutes”. For the same molecule, the IC50 [1] was 50 nM, the ED50 [5] was 12.5 mg/kg and the POL-I activity [6] was “inhibited POL-I activity”. For the same molecule, the EAE disease severity ([7]; administered at clinical disease onset) was “reduce the disease severity” and the EAE prevention ([7]; administered at disease induction) was “prevent animal Experimental Autoimmune Encephalomyelitis (EAE)”.

Work on `Cc1cnc(CNC(=O)c2/c(=N/C(C)C)c3ccc(N4CCCN(C)CC4)nc3n3c2sc2ccccc23)cn1` [Compound 7] yielded an IC50 [1] of 50 nM.

With `C/N=c1/c(C(=O)NCc2cnc(C)cn2)c2sc3ccccc3n2c2nc(N3CCCN(C)CC3)ccc12` [Compound 5, (E/Z)-2-(4-methyl-1,4-diazepan-1-yl)-5-(methylimino)-N-((5-methylpyrazin-2-yl)methyl)-5H-benzo[4,5]thiazolo[3,2-a][1,8]naphthyridine-6-carboxamide] the IC50 [1] was 50 nM.

Source: patent US10022382B2, “RNA polymerase I inhibitors and uses thereof” (Tel HaShomer Medical Research Infrastructure and Services …, priority 2013, dated 2018)
